Active and inactive are the calls of the source. No cut-off for these calls is given here. Where a SMILES comes first, the peptide text is derived from it. [ ]: non-standard residue; d: D form. The star is where a group is joined. Palmitoyl = CCCCCCCCCCCCCCCC(=O)*; βAla = NCCC(=O)O
Tests used:
Assay type in all cases: functional, organism-based
Influenza A virus [1] = test: Antiviral activity against oseltamivir-resistant Influenza A virus (H1N1) TJ/15
Influenza A virus [2] = test: Antiviral activity against oseltamivir-resistant Influenza A virus (H1N1) LN/1109
Influenza A virus [3] = test: Antiviral activity against oseltamivir-resistant Influenza A virus (H1N1) TJ/15 up to 100 uM

| SMILES | EC50 (Influenza A virus [1]) [µM] | EC50 (Influenza A virus [2]) [µM] | inhibition (Influenza A virus [3]) |
| --- | --- | --- | --- |
| CCCCCCCCCCCCCCCC(=O)NCCCC[C@H](NC(=O)CCNC(=O)[C@H](CCCCN)NC(=O)[C@H](CCCCN)NC(=O)[C@H](CCC(N)=O)NC(=O)[C@@H](NC(=O)[C@H](CCC(=O)O)NC(=O)[C@H](CCC(=O)O)NC(=O)[C@@H](NC(=O)[C@H](CCCCN)NC(=O)[C@H](CCCCN)NC(=O)[C@H](CCC(N)=O)NC(=O)[C@@H](NC(=O)[C@H](CCC(=O)O)NC(=O)[C@H](CCC(=O)O)NC(=O)[C@@H](NC(=O)[C@H](CCCCN)NC(=O)[C@H](CCCCN)NC(=O)[C@H](CCC(N)=O)NC(=O)[C@@H](NC(=O)[C@H](CCC(=O)O)NC(=O)[C@H](CCC(=O)O)NC(=O)[C@@H](NC(=O)[C@H](CCCCN)NC(=O)[C@H](CCCCN)NC(=O)[C@H](CCC(N)=O)NC(=O)[C@@H](NC(=O)[C@H](CCC(=O)O)NC(=O)[C@H](CCC(=O)O)NC(=O)[C@@H](NC(=O)[C@H](CCCCN)NC(=O)[C@H](CCCCN)NC(=O)[C@H](CCC(N)=O)NC(=O)[C@@H](NC(=O)[C@H](CCC(=O)O)NC(=O)[C@H](CCC(=O)O)NC(=O)[C@@H](NC(C)=O)[C@@H](C)CC)[C@@H](C)CC)[C@@H](C)CC)[C@@H](C)CC)[C@@H](C)CC)[C@@H](C)CC)[C@@H](C)CC)[C@@H](C)CC)[C@@H](C)CC)[C@@H](C)CC)C(N)=O (Ac-IEEIQKKIEEIQKKIEEIQKKIEEIQKKIEEIQKK[βAla]K(Palmitoyl)-NH2) | 3.03 | 4.36 | – |
| CCOC(=O)C1=C[C@@H](OC(CC)CC)[C@H](NC(C)=O)[C@@H](N)C1 [OSELTAMIVIR] | – | 21.7 | inactive |

Reference: ChEMBL document CHEMBL4196194, “De Novo Design of α-Helical Lipopeptides Targeting Viral Fusion Proteins: A Promising Strategy for Relatively Broad-Spectrum Antiviral Drug Discovery” (J Med Chem, 2018)
